Test results: publication PMC3161871, “Heteroarylketones inhibit astroglial interleukin-6 expression via a STAT3/NF-κB signaling pathway” (Journal of Neuroinflammation, 2011)

Experiments:
[1] = target: T1, human recombinant prolyl endopeptidase (PREP) (Homo sapiens, UniProt P48147); assay: PREP enzymatic activity assay (Z-Gly-Pro-pNA, photometric); format: biochemical; conditions: for Ki: recombinant PREP, Z-Gly-Pro-pNA 62.5/125/250 μM, pH 7.6, 30°C, competitive fit
T1 construct: made in house
T1 sequence (P48147 1-710): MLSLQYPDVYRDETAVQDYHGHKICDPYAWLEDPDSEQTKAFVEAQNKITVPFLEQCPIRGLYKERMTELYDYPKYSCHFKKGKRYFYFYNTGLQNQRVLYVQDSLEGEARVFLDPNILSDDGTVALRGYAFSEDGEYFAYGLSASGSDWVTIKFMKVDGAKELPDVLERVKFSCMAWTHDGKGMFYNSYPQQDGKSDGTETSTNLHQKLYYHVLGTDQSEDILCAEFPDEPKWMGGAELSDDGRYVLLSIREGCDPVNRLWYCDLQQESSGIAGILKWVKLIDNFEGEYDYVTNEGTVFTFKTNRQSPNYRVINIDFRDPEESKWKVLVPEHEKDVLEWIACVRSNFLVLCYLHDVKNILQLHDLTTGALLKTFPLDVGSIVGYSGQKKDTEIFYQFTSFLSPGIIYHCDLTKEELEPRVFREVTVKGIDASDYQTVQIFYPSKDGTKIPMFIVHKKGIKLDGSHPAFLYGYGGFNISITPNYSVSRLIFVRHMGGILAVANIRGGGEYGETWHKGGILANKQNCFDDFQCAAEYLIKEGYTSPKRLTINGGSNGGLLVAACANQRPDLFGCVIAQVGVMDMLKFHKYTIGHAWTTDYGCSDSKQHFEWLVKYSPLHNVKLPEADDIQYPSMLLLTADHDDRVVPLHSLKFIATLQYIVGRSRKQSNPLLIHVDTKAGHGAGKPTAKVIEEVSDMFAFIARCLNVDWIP
Method: The activity of human recombinant prolyl endopeptidase (PREP) was determined photometrically using the substrate Z-Gly-Pro-pNA (Bachem, Weil am Rhein, Germany) usually at a concentration of 150 μM. As assay buffer 50 mM HEPES buffer pH 7.6, containing 200 mM NaCl, 1 mM EDTA, and 1 mM dithiothreitol was used. Release of pNA was monitored continuously at 405 nm for 15 min at 30°C in a 96-well plate reader (Spectrafluor, Tecan, Crailsheim, Germany). PREP activity was calculated from the slope of the time product curve with the help of a pNA standard. For determination of Ki values three different substrate concentrations (62.5 μM; 125 μM and 250 μM) and seven different inhibitor concentrations were analyzed. Substrate concentrations were selected to be at the Km value of Z-Gly-Pro-pNA (125 μM) as well as half and twice the Km. Data were fitted by non-linear regression to the competitive inhibitor equation (Graphit 5.0, Erithacus software).

[2] = system: OSM-stimulated IL-6 secretion from U343 cells; assay: OSM-induced IL-6 release from U343 glioma cells (IL-6 ELISA of conditioned medium); format: cell-based, human; conditions: for Remaining IL-6 expression [% of control]: 100 ng/ml OSM, 24 h, IL-6 release of vehicle-treated cells set to 100% (n = 2), mean ± SD; for Effect on OSM-induced IL-6 secretion (in words): OSM-stimulated
Method: The human glioma cell line U343 [34] was maintained in DMEM containing 10% fetal bovine serum and 60 μg/ml gentamycin (Invitrogen, Darmstadt, Germany) at 37°C in a 10% CO2 atmosphere.
(§1) Measurements of IL-6 in conditioned medium and murine plasma samples were done by means of human- or murine-specific IL-6 Cytoset kits (Invitrogen, Darmstadt, Germany) according to manufacturer's protocols.
Using the characterized cell culture model of OSM-induced IL-6 expression, our in-house compound libraries were screened for potent IL-6 expression inhibitors. Human U343 glioma cells were treated with 100 ng/ml OSM for 24 h. The analysis by IL-6 ELISA identified a set of structurally related compounds as potent inhibitors of IL-6 secretion (Table 1). […] HAKs with proline in position P1 are known from the literature as inhibitors of prolyl endopeptidase (PREP), a proline-specific serine protease.

[3] = system: LPS-induced IL-6 release in primary rat astrocytes; assay: LPS-induced IL-6 release in primary rat astrocytes (ELISA); format: cell-based; conditions: 1 μg/ml LPS, 20 μM compound, 24 h
Method: (§2) According to Löffler, astrocyte-rich primary cell cultures were started with brains of newborn mice and rats and were maintained in Dulbecco's modified Eagle's medium (DMEM) for 33 days at 37°C in a humified atmosphere with 95% air/5% CO2.
as §1
(§3) Figure 5 Suppression of LPS-induced IL-6 release in primary murine astrocytes by selected HAK compounds. […] Astrocytes derived from newborn mice and rats were cultivated for 33 days followed by stimulation with 1 μg/ml LPS and treatment with compounds HAK-2 and HAK-5 (20 μM). After 24 hours conditioned media were analyzed with IL-6 specific ELISA. Data (mean ± SD) were obtained from experiments carried out in quadruplicate and statistical analysis was performed using the paired t test. Amount of IL-6 in LPS-treated control sample was set to 100%. ns, not significant; **p < 0.01; ***p < 0.001.
(§4) Primary murine astrocytes stimulated with 1 μg/ml LPS were co-treated with compounds HAK-2 and HAK-5 at a concentration of 20 μM each for 24 h. The observed effect of compounds HAK-2 and HAK-5 on LPS stimulation was similar to that of OSM-induced IL-6 expression in human U343 glioma cells (Figures 5A and 5B). […]

[4] = system: LPS-induced IL-6 release in primary mouse astrocytes; assay: LPS-induced IL-6 release in primary mouse astrocytes (ELISA); format: cell-based; conditions: 1 μg/ml LPS, 20 μM compound, 24 h
Method: as §2, §1, §3, §4

Row | Ki [1] [nM] | PREP inhibition (in words) [1] | Compound | Remaining IL-6 expression [% of control] [2] | Effect on OSM-induced IL-6 secretion (in words) [2] | Reduction of LPS-induced IL-6 expression [3] [%] | Reduction of LPS-induced IL-6 expression [4] [%]
1 | 4.6 |  | O=C(N[C@@H](Cc1ccccc1)C(=O)N1CCC[C@H]1C(=O)c1nc2ccccc2s1)OCc1ccccc1 [HAK-1, Z-Phe-Pro-BTh] | 15.9 ± 1.87 % of control | significantly reduced |  | 
2 | > 1000 | poor PREP inhibitors | CC(C)C[C@H](NC(=O)[C@H](Cc1ccccc1)NC(=O)OCc1ccccc1)C(=O)c1nc2ccccc2s1 [HAK-3, Z-Phe-Leu-BTh] | 22.1 ±5.91 % of control | significantly reduced |  | 
3 | > 10000 | poor PREP inhibitors | C[C@H](NC(=O)[C@H](Cc1ccccc1)NC(=O)OCc1ccccc1)C(=O)c1nc2ccccc2s1 [HAK-4, Z-Phe-Ala-BTh] | 35.1 ± 6.75 % of control | significantly reduced |  | 
4 | 0.11 |  | O=C(N[C@@H](Cc1ccccc1)C(=O)N1CCC[C@H]1C(=O)c1nccs1)OCc1ccccc1 [HAK-5, Z-Phe-Pro-Th] | 35.2 ± 12.92 % of control | significantly reduced | 50 | 60
5 | 4.1 |  | NCCCC[C@H](NC(=O)OCc1ccccc1)C(=O)N1CCC[C@H]1C(=O)c1nc2ccccc2s1 [HAK-6, Z-Lys-Pro-BTh] | 38.8 ± 5.26 % of control | significantly reduced |  | 
6 | 12 |  | O=C(O)C[C@H](NC(=O)OCc1ccccc1)C(=O)N1CCC[C@H]1C(=O)c1nc2ccccc2s1 [HAK-7, Z-Asp-Pro-BTh] | 52.8 ± 3.91 % of control | significantly reduced |  | 
7 | > 10000 |  | O=C(NC(Cc1ccccc1)C(=O)NC(Cc1ccccc1)C(=O)c1nc2ccccc2s1)OCc1ccccc1 (stereo not drawn) [HAK-9, Z-Phe-Phe-BTh] | 182.8 ± 25.41 % of control |  |  | 
